Columns and labels:
Type in all cases: ADME, organism-based
[1] = Half life in rat at 5 mg/kg, iv; design: dose 5 mg/kg, route intravenous; settings: in vivo
[2] = Oral bioavailability in rat at 20 mg/kg; settings: in vivo
[3] = AUC in rat at 20 mg/kg, po; design: dose 20 mg/kg, route oral; settings: plasma
[4] = Clearance in rat at 5 mg/kg, iv and 20 mg/kg, po; settings: in vivo
[5] = Volume of distribution at steady state in rat at 5 mg/kg, iv and 20 mg/kg, po; settings: in vivo, read-out: Vdss
[6] = AUC in mouse at 10 mg/kg, po; design: dose 10 mg/kg, route oral; settings: plasma
[7] = Volume of distribution at steady state in mouse at 5 mg/kg, iv and 10 mg/kg, po; settings: in vivo, read-out: Vdss
[8] = Clearance in mouse at 5 mg/kg, iv and 10 mg/kg, po; settings: in vivo
[9] = Oral bioavailability in mouse at 10 mg/kg; settings: in vivo
[10] = Half life in mouse at 10 mg/kg, po; design: dose 10 mg/kg, route oral; settings: in vivo

Compound	half-life [1]	bioavailability [2]	AUC [3]	clearance [4]	Vd [5]	AUC [6]	Vd [7]	clearance [8]	bioavailability [9]	half-life [10]
Oc1cccc(-c2cc(Nc3cnc4ccccc4c3)nc(N3CCOCC3)n2)c1	30 min	1%	0.03 µM·h	179 mL/min/kg	6.9 L/kg	–	–	–	–	–
Nc1ccc(-c2cc(Nc3cnc4ccccc4c3)nc(N3CCOCC3)n2)cn1	103 min	56%	93 µM·h	5 mL/min/kg	0.8 L/kg	–	–	–	–	–
Nc1ncc(-c2cc(Nc3cnc4ccccc4c3)nc(N3CCOCC3)n2)cn1	43 min	23%	6 µM·h	37 mL/min/kg	1.9 L/kg	–	–	–	–	–

The next lines start with the values.

half-life [1]	bioavailability [2]	AUC [3]	clearance [4]	Vd [5]	AUC [6]	Vd [7]	clearance [8]	bioavailability [9]	half-life [10]	Compound
55 min	46%	16 µM·h	26 mL/min/kg	2.4 L/kg	–	–	–	–	–	c1cncc(-c2cc(Nc3cnc4ccccc4c3)nc(N3CCOCC3)n2)c1
–	–	–	–	–	2 µM·h	1.1 L/kg	99 mL/min/kg	87%	282 min	COc1ccc(Nc2cc(-c3cnc(N)nc3)nc(N3CCOCC3)n2)cn1
